Source: PubChem BioAssay (NCI)
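The compound was tested at five concentrations on cells cultured in 96-well plates, with a 48-hour exposure period. Here, GI50 denotes the concentration required for 50% inhibition of growth. At the TGI there is no net growth.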

Columns and labels:
Experiment in all cases: growth of human tumour cells (NCI), 48 h
HOP-92 NSCLC = system: HOP-92 NSCLC
A549 NSCLC = system: A549 NSCLC
PC-3 prostate = system: PC-3 prostate
HS 578T breast = system: HS 578T breast
MDA-MB-231 breast = system: MDA-MB-231 breast
NCI-H23 lung = system: NCI-H23 lung
SNB-75 CNS = system: SNB-75 CNS
IGROV1 ovarian = system: IGROV1 ovarian
SK-MEL-28 melanoma = system: SK-MEL-28 melanoma
UACC-62 melanoma = system: UACC-62 melanoma
LOX IMVI melanoma = system: LOX IMVI melanoma
COLO 205 colon = system: COLO 205 colon
HL-60(TB) leukemia = system: HL-60(TB) leukemia
OVCAR-4 ovarian = system: OVCAR-4 ovarian
U251 CNS = system: U251 CNS
EKVX NSCLC = system: EKVX NSCLC
MDA-MB-435 = system: MDA-MB-435
HOP-62 NSCLC = system: HOP-62 NSCLC
A498 renal = system: A498 renal
SK-MEL-5 melanoma = system: SK-MEL-5 melanoma
MCF7 breast = system: MCF7 breast
SW-620 colon = system: SW-620 colon
HCT-116 colon = system: HCT-116 colon
SF-268 CNS = system: SF-268 CNS
SF-539 CNS = system: SF-539 CNS
M14 melanoma = system: M14 melanoma
HCT-15 colon = system: HCT-15 colon
SK-MEL-2 melanoma = system: SK-MEL-2 melanoma
OVCAR-3 ovarian = system: OVCAR-3 ovarian
UO-31 renal = system: UO-31 renal
KM12 colon = system: KM12 colon
OVCAR-5 ovarian = system: OVCAR-5 ovarian
SNB-19 CNS = system: SNB-19 CNS
HCC-2998 colon = system: HCC-2998 colon
SR leukemia = system: SR leukemia
NCI-H226 lung = system: NCI-H226 lung
CAKI-1 renal = system: CAKI-1 renal
HT29 colon = system: HT29 colon
MALME-3M melanoma = system: MALME-3M melanoma
SK-OV-3 ovarian = system: SK-OV-3 ovarian
RPMI-8226 leukemia = system: RPMI-8226 leukemia
786-0 renal = system: 786-0 renal
SF-295 CNS = system: SF-295 CNS
TK-10 renal = system: TK-10 renal
NCI-H460 lung = system: NCI-H460 lung
ACHN renal = system: ACHN renal
DU-145 prostate = system: DU-145 prostate
OVCAR-8 ovarian = system: OVCAR-8 ovarian
T-47D breast = system: T-47D breast
NCI-H522 lung = system: NCI-H522 lung
CCRF-CEM leukemia = system: CCRF-CEM leukemia
SN12C renal = system: SN12C renal
UACC-257 melanoma = system: UACC-257 melanoma
K-562 leukemia = system: K-562 leukemia

CC(=O)O[C@H]1CC[C@@]2(C)C(=CC[C@H]3[C@@H]4C/C(=C\c5cccc(OCCN6CCOCC6)c5)[C@H](OC(C)=O)[C@@]4(C)CC[C@@H]32)C1
GI50 (HOP-92 NSCLC): 4.32 µM | TGI (HOP-92 NSCLC): 16.8 µM | GI50 (A549 NSCLC): 5.05 µM | TGI (A549 NSCLC): 20.5 µM | GI50 (PC-3 prostate): 4.5 µM | TGI (PC-3 prostate): 16.4 µM | GI50 (HS 578T breast): 3.07 µM | TGI (HS 578T breast): 10.9 µM | GI50 (MDA-MB-231 breast): 3.12 µM | TGI (MDA-MB-231 breast): 13.3 µM | GI50 (NCI-H23 lung): 6.97 µM | TGI (NCI-H23 lung): 23.8 µM | GI50 (SNB-75 CNS): 3.85 µM | TGI (SNB-75 CNS): 22.8 µM | GI50 (IGROV1 ovarian): 25.6 µM | TGI (IGROV1 ovarian): 80.2 µM | GI50 (SK-MEL-28 melanoma): 5.48 µM | TGI (SK-MEL-28 melanoma): 17.6 µM | GI50 (UACC-62 melanoma): 6.1 µM | TGI (UACC-62 melanoma): 19.1 µM | GI50 (LOX IMVI melanoma): 5.94 µM | TGI (LOX IMVI melanoma): 18.4 µM | GI50 (COLO 205 colon): 6.46 µM | TGI (COLO 205 colon): 19.4 µM | GI50 (HL-60(TB) leukemia): 3.61 µM | TGI (HL-60(TB) leukemia): 14.6 µM | GI50 (OVCAR-4 ovarian): 8.16 µM | TGI (OVCAR-4 ovarian): > 100 µM | GI50 (U251 CNS): 4.58 µM | TGI (U251 CNS): 16.6 µM | GI50 (EKVX NSCLC): 11 µM | TGI (EKVX NSCLC): 36.7 µM | GI50 (MDA-MB-435): 11.1 µM | TGI (MDA-MB-435): 23.1 µM | GI50 (HOP-62 NSCLC): 6.29 µM | TGI (HOP-62 NSCLC): 19.5 µM | GI50 (A498 renal): 15.3 µM | TGI (A498 renal): 29.1 µM | GI50 (SK-MEL-5 melanoma): 10.5 µM | TGI (SK-MEL-5 melanoma): 22.3 µM | GI50 (MCF7 breast): 10.4 µM | TGI (MCF7 breast): 84.5 µM | GI50 (SW-620 colon): 4.87 µM | TGI (SW-620 colon): 15.7 µM | GI50 (HCT-116 colon): 4.1 µM | TGI (HCT-116 colon): 15.9 µM | GI50 (SF-268 CNS): 12.6 µM | TGI (SF-268 CNS): 58.8 µM | GI50 (SF-539 CNS): 3.64 µM | TGI (SF-539 CNS): 13.9 µM | GI50 (M14 melanoma): 5.91 µM | TGI (M14 melanoma): 18.9 µM | GI50 (HCT-15 colon): 2.95 µM | TGI (HCT-15 colon): 11.5 µM | GI50 (SK-MEL-2 melanoma): 12.2 µM | TGI (SK-MEL-2 melanoma): 24.5 µM | GI50 (OVCAR-3 ovarian): 44.7 µM | TGI (OVCAR-3 ovarian): > 100 µM | GI50 (UO-31 renal): 6.43 µM | TGI (UO-31 renal): 19.3 µM | GI50 (KM12 colon): 3.84 µM | TGI (KM12 colon): 14.2 µM | GI50 (OVCAR-5 ovarian): 15 µM | TGI (OVCAR-5 ovarian): 56.2 µM | GI50 (SNB-19 CNS): 9.13 µM | TGI (SNB-19 CNS): 29.3 µM | GI50 (HCC-2998 colon): 5.32 µM | TGI (HCC-2998 colon): 17.6 µM | GI50 (SR leukemia): 5.47 µM | TGI (SR leukemia): 18.6 µM | GI50 (NCI-H226 lung): 17.9 µM | TGI (NCI-H226 lung): 85.9 µM | GI50 (CAKI-1 renal): 12.2 µM | TGI (CAKI-1 renal): 59 µM | GI50 (HT29 colon): 2.16 µM | TGI (HT29 colon): 5.11 µM | GI50 (MALME-3M melanoma): 11.4 µM | TGI (MALME-3M melanoma): 23.5 µM | GI50 (SK-OV-3 ovarian): 6.85 µM | TGI (SK-OV-3 ovarian): 34 µM | GI50 (RPMI-8226 leukemia): 2.99 µM | TGI (RPMI-8226 leukemia): 9.92 µM | GI50 (786-0 renal): 2.63 µM | TGI (786-0 renal): 7.96 µM | GI50 (SF-295 CNS): 2.48 µM | TGI (SF-295 CNS): 10.5 µM | GI50 (TK-10 renal): 11.6 µM | TGI (TK-10 renal): 48.7 µM | GI50 (NCI-H460 lung): 6.39 µM | TGI (NCI-H460 lung): 20.7 µM | GI50 (ACHN renal): 13.8 µM | TGI (ACHN renal): 42.9 µM | GI50 (DU-145 prostate): 23.3 µM | TGI (DU-145 prostate): > 100 µM | GI50 (OVCAR-8 ovarian): 8.69 µM | TGI (OVCAR-8 ovarian): 20.8 µM | GI50 (T-47D breast): 4.18 µM | TGI (T-47D breast): 22.5 µM | GI50 (NCI-H522 lung): 12.9 µM | TGI (NCI-H522 lung): 27.5 µM | GI50 (CCRF-CEM leukemia): 3.87 µM | TGI (CCRF-CEM leukemia): 16.7 µM | GI50 (SN12C renal): 25 µM | TGI (SN12C renal): > 100 µM | GI50 (UACC-257 melanoma): 2.79 µM | TGI (UACC-257 melanoma): 5.04 µM | GI50 (K-562 leukemia): 2.95 µM | TGI (K-562 leukemia): 12.5 µM
